Test results reported in ChEMBL document CHEMBL5728597, “Tetrahydroquinoline derivatives as P2X7 receptor antagonists” (2021).

Target: T1, P2X purinoceptor 7 (Homo sapiens, UniProt Q99572)
T1 sequence (Q99572 whole entry): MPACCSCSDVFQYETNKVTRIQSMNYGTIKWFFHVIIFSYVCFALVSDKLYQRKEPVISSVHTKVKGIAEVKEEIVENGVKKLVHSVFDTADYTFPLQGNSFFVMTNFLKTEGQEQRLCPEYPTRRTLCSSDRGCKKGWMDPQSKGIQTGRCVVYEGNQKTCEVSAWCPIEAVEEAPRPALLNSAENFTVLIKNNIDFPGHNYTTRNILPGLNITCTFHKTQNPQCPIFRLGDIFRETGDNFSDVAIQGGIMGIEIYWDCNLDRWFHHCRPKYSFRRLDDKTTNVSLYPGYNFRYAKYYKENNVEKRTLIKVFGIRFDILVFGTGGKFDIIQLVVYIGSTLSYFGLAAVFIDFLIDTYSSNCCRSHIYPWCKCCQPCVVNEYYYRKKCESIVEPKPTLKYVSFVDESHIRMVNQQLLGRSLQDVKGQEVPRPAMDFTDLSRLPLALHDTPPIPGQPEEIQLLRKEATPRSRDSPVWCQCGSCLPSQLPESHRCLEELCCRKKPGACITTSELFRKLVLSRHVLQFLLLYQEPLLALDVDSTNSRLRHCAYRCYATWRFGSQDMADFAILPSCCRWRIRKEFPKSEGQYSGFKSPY
Experiment: Pharmacological Assay: 1. […] Incubate the plate at 37° C. in 5% CO2 for 1 h.4. […] Test compounds were prepared at 100× the test concentration in DMSO by serial dilution with Biomek-FX liquid handling instrument. 33× diluted compound solutions in assay buffer were prepared in intermediate compound plate with Biomek-NX liquid handling instrument. A further 3× dilution occurred in below steps 6 and 7.6. Add 20 microL of 33× diluted compound solutions into each well and leave the plate for 10 min under the dark at room temperature.7. Measure activity by FDSS as follows:Set the assay plate on the stacker of FDSS.Start the detection of fluorescence intensity at 540 nm by 480 nm exicitation.After 30 seconds, add 20 microL of assay buffer containing 240 microM BzATP (final concentration 80 microM).

Compound | IC50
NC(=O)CC1CCC(C(=O)NCc2cccc(C(F)(F)F)c2Cl)c2cccnc21 (configuration not stated) | < 50 nM
O=C(NCc1ccc(C(F)(F)F)cc1Cl)[C@]1(F)CC[C@H](O)c2ncccc21 | < 50 nM
